Values after ≈ are worked out from the molar mass of the structure shown.
What was measured:
Type in all cases: functional
[1] = tested on: Mycobacterium tuberculosis; assay: Antimycobacterial activity against multi-drug resistant Mycobacterium tuberculosis Praha 4 after 21 days by microplate dilution method; conditions: Praha 4, 504 h
[2] = tested on: Mycobacterium tuberculosis; assay: Antimycobacterial activity against multi-drug resistant Mycobacterium tuberculosis Praha 1 after 21 days by microplate dilution method; conditions: Praha 1, 504 h
[3] = tested on: Mycobacterium tuberculosis; assay: Antimycobacterial activity against multi-drug resistant Mycobacterium tuberculosis Praha 1 after 14 days by microplate dilution method; conditions: Praha 1, 336 h
[4] = tested on: Mycobacterium tuberculosis; assay: Antimycobacterial activity against multi-drug resistant Mycobacterium tuberculosis 9449/2007 after 21 days by microplate dilution method; conditions: 9449/2007, 504 h
[5] = tested on: Mycobacterium tuberculosis; assay: Antimycobacterial activity against multi-drug resistant Mycobacterium tuberculosis Praha 131 after 21 days by microplate dilution method; conditions: Praha 131, 504 h
[6] = tested on: Mycobacterium tuberculosis; assay: Antimycobacterial activity against multi-drug resistant Mycobacterium tuberculosis 8666/2010 after 14 days by microplate dilution method; conditions: 8666/2010, 336 h
[7] = tested on: Mycobacterium tuberculosis; assay: Antimycobacterial activity against multi-drug resistant Mycobacterium tuberculosis 234/2005 after 21 days by microplate dilution method; conditions: 234/2005, 504 h
[8] = tested on: Mycobacterium tuberculosis; assay: Antimycobacterial activity against multi-drug resistant Mycobacterium tuberculosis Praha 131 after 14 days by microplate dilution method; conditions: Praha 131, 336 h
[9] = tested on: Mycobacterium tuberculosis; assay: Antimycobacterial activity against multi-drug resistant Mycobacterium tuberculosis 8666/2010 after 21 days by microplate dilution method; conditions: 8666/2010, 504 h
[10] = tested on: Mycobacterium tuberculosis; assay: Antimycobacterial activity against multi-drug resistant Mycobacterium tuberculosis 7357/1998 after 21 days by microplate dilution method; conditions: 7357/1998, 504 h
[11] = tested on: Mycobacterium tuberculosis; assay: Antimycobacterial activity against multi-drug resistant Mycobacterium tuberculosis 234/2005 after 14 days by microplate dilution method; conditions: 234/2005, 336 h
[12] = tested on: Mycobacterium tuberculosis; assay: Antimycobacterial activity against multi-drug resistant Mycobacterium tuberculosis 9449/2007 after 14 days by microplate dilution method; conditions: 9449/2007, 336 h
[13] = tested on: Mycobacterium tuberculosis; assay: Antimycobacterial activity against multi-drug resistant Mycobacterium tuberculosis Praha 4 after 14 days by microplate dilution method; conditions: Praha 4, 336 h
[14] = tested on: Mycobacterium tuberculosis; assay: Antimycobacterial activity against multi-drug resistant Mycobacterium tuberculosis 7357/1998 after 14 days by microplate dilution method; conditions: 7357/1998, 336 h

Structure (SMILES)	MIC [1] [µM]	MIC [2] [µM]	MIC [3] [µM]	MIC [4] [µM]	MIC [5] [µM]	MIC [6] [µM]	MIC [7] [µM]	MIC [8] [µM]	MIC [9] [µM]	MIC [10] [µM]	MIC [11] [µM]	MIC [12] [µM]	MIC [13] [µM]	MIC [14] [µM]
CCCCCCNc1cnc(C(=O)NCc2ccccc2)cn1	8 (≈ 2.5 µg/mL)	8 (≈ 2.5 µg/mL)	4 (≈ 1.25 µg/mL)	8 (≈ 2.5 µg/mL)	4 (≈ 1.25 µg/mL)	4 (≈ 1.25 µg/mL)	8 (≈ 2.5 µg/mL)	4 (≈ 1.25 µg/mL)	8 (≈ 2.5 µg/mL)	8 (≈ 2.5 µg/mL)	4 (≈ 1.25 µg/mL)	8 (≈ 2.5 µg/mL)	8 (≈ 2.5 µg/mL)	8 (≈ 2.5 µg/mL)
CCCCCCCCNc1nccnc1C(=O)NCc1ccccc1	> 1000	> 1000	> 1000	> 1000	> 1000	> 1000	> 1000	> 1000	> 1000	> 1000	> 1000	> 1000	> 1000	> 1000
CCCCNc1nccnc1C(=O)NCc1ccccc1	125 (≈ 35.5 µg/mL)	125 (≈ 35.5 µg/mL)	125 (≈ 35.5 µg/mL)	250 (≈ 71.1 µg/mL)	250 (≈ 71.1 µg/mL)	125 (≈ 35.5 µg/mL)	250 (≈ 71.1 µg/mL)	125 (≈ 35.5 µg/mL)	250 (≈ 71.1 µg/mL)	250 (≈ 71.1 µg/mL)	125 (≈ 35.5 µg/mL)	125 (≈ 35.5 µg/mL)	125 (≈ 35.5 µg/mL)	125 (≈ 35.5 µg/mL)
CCCCCCCCNc1cnc(C(=O)NCc2ccccc2)cn1	8 (≈ 2.72 µg/mL)	8 (≈ 2.72 µg/mL)	4 (≈ 1.36 µg/mL)	8 (≈ 2.72 µg/mL)	4 (≈ 1.36 µg/mL)	4 (≈ 1.36 µg/mL)	8 (≈ 2.72 µg/mL)	4 (≈ 1.36 µg/mL)	8 (≈ 2.72 µg/mL)	8 (≈ 2.72 µg/mL)	4 (≈ 1.36 µg/mL)	8 (≈ 2.72 µg/mL)	8 (≈ 2.72 µg/mL)	8 (≈ 2.72 µg/mL)
CCCCCNc1cnc(C(=O)NCc2ccccc2)cn1	32 (≈ 9.55 µg/mL)	32 (≈ 9.55 µg/mL)	16 (≈ 4.77 µg/mL)	32 (≈ 9.55 µg/mL)	16 (≈ 4.77 µg/mL)	16 (≈ 4.77 µg/mL)	32 (≈ 9.55 µg/mL)	16 (≈ 4.77 µg/mL)	32 (≈ 9.55 µg/mL)	32 (≈ 9.55 µg/mL)	16 (≈ 4.77 µg/mL)	16 (≈ 4.77 µg/mL)	16 (≈ 4.77 µg/mL)	16 (≈ 4.77 µg/mL)
CCCCNc1cncc(C(=O)NCc2ccccc2)n1	62.5 (≈ 17.8 µg/mL)	62.5 (≈ 17.8 µg/mL)	62.5 (≈ 17.8 µg/mL)	125 (≈ 35.5 µg/mL)	62.5 (≈ 17.8 µg/mL)	62.5 (≈ 17.8 µg/mL)	62.5 (≈ 17.8 µg/mL)	32 (≈ 9.1 µg/mL)	62.5 (≈ 17.8 µg/mL)	62.5 (≈ 17.8 µg/mL)	62.5 (≈ 17.8 µg/mL)	62.5 (≈ 17.8 µg/mL)	32 (≈ 9.1 µg/mL)	62.5 (≈ 17.8 µg/mL)
NNC(=O)c1ccncc1 [ISONIAZID]	16 (≈ 2.19 µg/mL)	16 (≈ 2.19 µg/mL)	16 (≈ 2.19 µg/mL)	16 (≈ 2.19 µg/mL)	16 (≈ 2.19 µg/mL)	16 (≈ 2.19 µg/mL)	16 (≈ 2.19 µg/mL)	16 (≈ 2.19 µg/mL)	32 (≈ 4.39 µg/mL)	32 (≈ 4.39 µg/mL)	16 (≈ 2.19 µg/mL)	16 (≈ 2.19 µg/mL)	16 (≈ 2.19 µg/mL)	16 (≈ 2.19 µg/mL)
CCCCCCCNc1cnc(C(=O)NCc2ccccc2)cn1	8 (≈ 2.61 µg/mL)	4 (≈ 1.31 µg/mL)	4 (≈ 1.31 µg/mL)	8 (≈ 2.61 µg/mL)	4 (≈ 1.31 µg/mL)	4 (≈ 1.31 µg/mL)	4 (≈ 1.31 µg/mL)	2 (≈ 0.653 µg/mL)	4 (≈ 1.31 µg/mL)	8 (≈ 2.61 µg/mL)	4 (≈ 1.31 µg/mL)	4 (≈ 1.31 µg/mL)	4 (≈ 1.31 µg/mL)	4 (≈ 1.31 µg/mL)

From ChEMBL document CHEMBL3745676, “Alkylamino derivatives of N-benzylpyrazine-2-carboxamide: synthesis and antimycobacterial evaluation” (Medchemcomm, 2015)
